What all share (assay): inhibition of tumour cell growth, NCI panel, 48 h
Assay [1] relates to HS 578T breast.
Assay [2] has as its system UO-31 renal.
Assay [3] deals with SK-MEL-5 melanoma.
For assay [4], the system named is MALME-3M melanoma.
The test system of assay [5] is A498 renal.
Assay [6] has as its system OVCAR-5 ovarian.
Assay [7] relates to MDA-MB-231 breast.
Assay [8] has as its system MOLT-4 leukemia.
Assay [9] relates to UACC-62 melanoma.
For assay [10], the system named is CAKI-1 renal.

“And” between values parts separate entries of the source, which are not always exact repeats. Equal entries are not always repeated.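 Cells were grown in 96-well plates and exposed to each compound for 48 hours at five concentrations; endpoints were interpolated linearly between bracketing concentrations, or set to the highest concentration if not reached. GI50: concentration for 50% inhibition of growth. The concentration for full growth arrest is given as TGI.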

As for `CNC(=O)c1c(NC(=O)c2ccc(C(F)(F)F)cc2)sc2c1CCC(=O)C2`, the GI50 in assay [1] was 774 nM; in assay [2], 302 nM; in [3] it was 1110 nM; in assay [4] it was 1110 nM; in assay [5] it was 2330 nM; in [6] it was 607 nM. Further, the GI50 in assay [7] was 529 nM; in assay [8] it was 470 nM; in [9] it was 617 nM; in assay [10] it was 388 nM. For the same molecule, the TGI in assay [1] came to 13200 nM; in assay [2], 1400 nM; in [3], 2580 nM; in assay [4], 3880 nM; in assay [5], 7070 nM; in [6] it was 2760 nM. Besides, the TGI stood at 2510 nM in assay [7], 4010 nM in [8], 2230 nM in assay [9] and 1880 nM in [10].

For the molecule `Cc1cccc(-c2nn3c(c2-c2ccnc4ccc(C(N)=O)cc24)CCC3)n1`, the GI50 in assay [1] was > 100000 nM; in [2] it was > 100000 nM; in assay [3], > 100000 nM; in assay [4], 57200 nM; in assay [5], 97500 nM; in assay [6], > 100000 nM. Moreover, the GI50 is > 100000 nM in assay [7], > 100000 nM in assay [8], 78800 nM in [9] and > 100000 nM in assay [10]. Further, the TGI in assay [1], in assay [2], in [3], in [4], in assay [5] and in [6] was > 100000 nM throughout. In addition, the TGI in assay [7], in assay [8], in assay [9] and in [10] was > 100000 nM throughout.

For `Cc1ccc2c(c1)C(C)Cc1c(ncnc1-n1cnc3cc(C)ccc31)N2C` (centres undefined), the GI50 is 45.9 nM in assay [1]; 72.9 nM in [2]; 32.4 nM in assay [3]; 11000 nM in assay [4]; 29.7 nM in [5]; 48 nM in assay [6]. Also, the GI50 in assay [7] was 41.6 nM; in assay [8] it was 40.7 nM; in assay [9], 86 nM; in assay [10], 40.7 nM. The TGI in assay [1] amounted to 23000 nM; in assay [2] it was 12300 nM; in assay [3], 165 nM; in assay [4], 23700 nM; in assay [5], 2000 nM; in assay [6] it was 22200 nM. Moreover, the TGI in assay [7] came out at 13400 nM; in assay [8] it was 13800 nM; in assay [9], 16700 nM; in assay [10], 12400 nM.

Consider `CCc1c2c(nc3cc4c(c(N)c13)OCO4)-c1cc3c(c(=O)n1C2)COC(=O)[C@]3(O)CC`, for which the TGI in assay [1] is > 100000 nM; in assay [2], 153 nM; in [3], 22.2 nM and 101 nM; in assay [4] it was 4250 nM; in assay [5], 252 nM and 459 nM; in [6] it was 409 nM. Besides, the TGI in assay [7] was > 100000 nM; in [9] it was 405 nM and 236 nM; in assay [10], 7.41 nM. In addition, the GI50 in assay [2] is 1.28 nM; in assay [3], < 1 nM; in [4], 27.6 nM; in assay [5] it was 7.58 nM and 33.4 nM; in assay [6], 702 nM and 94.8 nM; in assay [7], 24.6 nM and 48.8 nM. Besides, the GI50 in assay [8], in assay [9] and in [10] was < 1 nM throughout.

Turning to `CC1=C(C(=O)Nc2ccccc2C)C(c2ccc(C3C(C(=O)Nc4ccccc4C)=C(C)NC(C)=C3C(=O)Nc3ccccc3C)cc2)C(C(=O)Nc2ccccc2C)=C(C)N1`, the TGI in assay [1] turned out to be 55300 nM; in [2] it was 26700 nM; in assay [3], 24600 nM; in assay [4] it was 6130 nM; in assay [5], 29000 nM; in assay [6], 31800 nM. Also, the TGI in assay [7] was 15200 nM; in assay [8], 9280 nM; in assay [9] it was 4650 nM; in [10], 22700 nM.

In the case of `CCN1C(=O)N(CC)C2C1NN=c1s/c(=C\c3ccccc3F)c(=O)n12` (centres undefined), the GI50 was 34.5 nM in assay [1]; 170 nM in assay [2]; 28.9 nM in assay [3]; 15400 nM in assay [4]; 15.4 nM in [5]; 62.8 nM in [6]. The GI50 in assay [7] is 45.7 nM; in assay [8], 41.9 nM; in assay [9], 50.5 nM; in assay [10], 32.3 nM. Moreover, the TGI in assay [1] was > 100000 nM; in assay [2] it was > 69400 nM; in assay [3] it was 203 nM; in assay [4], > 100000 nM; in [5], 64 nM; in assay [6], > 100000 nM. The TGI is > 84600 nM in assay [7], > 100000 nM in [8], > 80400 nM in assay [9] and > 100000 nM in assay [10].

On to `C[C@H](N)C(=O)N[C@@H]1[C@H]2C(=C(O)C[C@@H](O)[C@@H]2O)C(=O)O[C@]1(C)C(Cl)Cl`, for which the TGI in assay [1] was 634 nM; in [2], 5470 nM and 5410 nM; in assay [3], 994 nM and 471 nM; in assay [4] it was 1640 nM and 1330 nM; in assay [5], 2270 nM and 1560 nM; in [6] it was 7440 nM and 3440 nM. Also, the TGI in [7] was 1140 nM; in [8], 3790 nM and 564 nM; in [9], 1660 nM and 1100 nM. The GI50 was 763 nM in assay [2]; 228 nM in assay [3]; 186 nM and 130 nM in assay [8]; 270 nM in [9]; 430 nM in assay [10].

With `C=CC(=O)N1C/C(=C\c2ccccc2)C(=O)/C(=C/c2ccccc2)C1`, the values for the GI50 in assay [1] and in assay [8] were 2220 nM and 562 nM, respectively. The TGI in assay [1] worked out at 14800 nM; in [2] it was 3430 nM; in assay [3] it was 3120 nM; in [4], 4870 nM; in assay [5] it was 4030 nM; in assay [6] it was 5720 nM. In addition, the TGI worked out at 4550 nM in [7], 4500 nM in assay [8], 3680 nM in [9] and 6880 nM in [10].

Source of the values: PubChem BioAssay (NCI).
